# Experimental data published in US5693617A, “Inhibitors of the 26s proteolytic complex and the 20s proteasome contained therein” (ProScript, Inc., priority 1995, dated 1997).
# “Also recorded” adds a separate entry of the source. Non-standard residues stand in square brackets, D forms with d. Residues, ends and D or L forms follow the SMILES beside them. Nle = CCCC[C@H](N)C(=O)O
# Columns and labels:
# RMA cells = assay: Class I MHC assembly in RMA cells; assay type: cell-based
# Description: Class I MHC molecules are peptide-binding receptors composed of a heavy and a light chain. Peptide binding to these molecules is essential for the stable association of the heavy and light chains. […] To test the effect of MG 101 on class I assembly, RMA cells were incubated with and without MG 101 (100 μM) for 1 hr at 37° C., electroporated with and without MG 101 (100 μM) as described in Example 7, and incubated with and without MG 101 (100 μM) for 3 hrs at 37° C. Over the last 30 min of incubation the cells were pulse labeled with ^35 S-methionine and were then washed and detergent lysates were prepared. Lysates were divided and class I binding peptides were added to one group. Class I molecules were immunoprecipitated with a mAb, Y3 (Townsend et al., Cell 62:285-295 (1990)), that only reacts with assembled class I heterodimers and analyzed as previously described ([…] et al., Nature 363:552-554 (1993)).
# [1] = test system: mouse B lymphoblastoid cell line (LB27.4); assay: MHC-I antigen presentation, intact cells (OVA loaded by hypotonic lysis of pinosomes); assay type: cell-based; settings: 50 μM MG 101 in media; FIG. 6
# Description: (§1) Antigen-presenting cells (APCs)--mouse B lymphoblastoid cell line (LB27.4)--were washed free of serum and loaded with an ovalbumin peptide (residues 257-263), which corresponds to the sequence these cells naturally generate and present. The APCs were incubated 1 hr at 37° C., electroporated with antigen, incubated 10 min on ice and washed. The antigen loaded cells were incubated 2 hrs at 37° C., fixed with paraformaldehyde, and washed. MG 101 at the concentrations indicated in FIG. 5 was present in all steps prior to fixation. APCs were assayed for antigen presentation as described in Rock et al., J. Immunol. 145:804-811 (1990) and Carbone et al., J. Exp Med. 171:377-387 (1990). […] In the left panel, APCs were treated with (open circles) or without (closed circles) MG 101 and electroporated with ovalbumin. In the right panel, APCs were treated with (open circles) or without (closed circles) MG 101 and electroporated with ovalbumin peptide. Conditions were the same as in Example 7, except that (1) in one group of cells (referred to as MG 101 in media) MG 101 (50 μM) was omitted from the antigen load while in a parallel group (referred to as MG 101 in Ag load) MG 101 (50 μM) was included in the antigen load; and (2) OVA was introduced into the cytoplasm by hypotonic lysis of pinosomes (3) instead of electroporation.
# [2] = test system: mouse B lymphoblastoid cell line (LB27.4); assay: MHC-I antigen presentation, electroporated antigen-presenting cells; assay type: cell-based
# Description: as §1, with “peptide.” for “peptide. Conditions were the same as in Example 7, except that (1) in one group of cells (referred to as MG 101 in media) MG 101 (50 μM) was omitted from the antigen load while in a parallel group (referred to as MG 101 in Ag load) MG 101 (50 μM) was included in the antigen load; and (2) OVA was introduced into the cytoplasm by hypotonic lysis of pinosomes (3) instead of electroporation.”
# 26S proteasome = target: T1, 26S proteasome (Oryctolagus cuniculus, UniProt G1T4Q9); assay: Inhibition of the 26S proteasome (kinetic experiments); assay type: biochemical, Rabbit; settings: summary of enzyme inhibition; read-out: Ki, 26S proteasome complex activity
# T1 sequence (G1T4Q9 60-263): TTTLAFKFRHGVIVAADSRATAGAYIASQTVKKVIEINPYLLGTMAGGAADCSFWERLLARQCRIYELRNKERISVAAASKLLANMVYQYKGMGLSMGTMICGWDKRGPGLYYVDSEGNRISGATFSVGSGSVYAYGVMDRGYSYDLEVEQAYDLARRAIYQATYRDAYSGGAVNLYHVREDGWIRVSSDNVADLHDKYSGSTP
# T1 sequence (G1SU71 1-241 partner): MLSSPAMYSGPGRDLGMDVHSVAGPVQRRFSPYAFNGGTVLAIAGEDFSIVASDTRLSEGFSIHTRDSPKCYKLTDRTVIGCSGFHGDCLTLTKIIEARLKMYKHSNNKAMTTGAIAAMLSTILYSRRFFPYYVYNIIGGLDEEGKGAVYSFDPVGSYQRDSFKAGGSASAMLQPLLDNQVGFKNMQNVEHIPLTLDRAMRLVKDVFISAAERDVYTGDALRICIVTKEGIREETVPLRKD
# Text: Tables I-III summarize results from kinetic experiments that measured the inhibition of the 20S and 26S proteasomes, as well as cathepsin B and calpain, enzymes that may also be involved in muscle protein turnover. In these tables, Ki values are reported, which are dissociation constants for the equilibrium that is established when enzyme and inhibitor interact to form the enzyme:inhibitor complex.
# The substances and assay conditions are briefly summarized in the footnotes to Table I. MG 101 and MG 102, also known as Calpain Inhibitor I and II, were purchased from Calbiochem as catalogue products.
# (^b) Rabbit muscle. Substrate: […]. [Mg:ATP] = 2 mM.
# rat soleus muscle = assay: Denervation-induced protein degradation in incubated rat soleus muscle; settings: 100 μM MG 101; FIG. 4
# Description: One leg of each of seven rats was denervated by section of the sciatic nerve 3 days prior to sacrifice. […] After incubation, the tissue was homogenized, and ^3 -phenylalanine incorporation into protein and free tyrosine of the medium was measured.
# human cell line RAJI-K^b = assay: MHC-I antigen presentation in human cells; assay type: cell-based; settings: FIG. 8
# Description: as §1, with “peptide.” for “peptide. Conditions were the same as in”, “7 was repeated” for “7,”, “the human cell line RAJI-K^b” for “(1) in one group of cells (referred to as MG 101 in media) MG 101 (50 μM)”, “used.” for “omitted from the antigen load while in a parallel group (referred to as MG 101 in Ag load) MG 101 (50 μM) was included in the antigen load; and (2) OVA was introduced into the cytoplasm by hypotonic lysis of pinosomes (3) instead of electroporation.”
compound,measurement,setting,value
"CCCC[C@@H](C=O)NC(=O)[C@H](CC(C)C)NC(=O)[C@H](CC(C)C)NC(C)=O [MG 101, Ac-Leu-Leu-Nle-H] (Ac-Leu-Leu-[Nle]-aldehyde)",Assembly of class I heterodimers,"RMA cells; 100 μM MG 101, FIG. 7",markedly reduced
same,Class I complex formation from introduced antigenic peptide,"RMA cells; 100 μM MG 101, FIG. 7 lane 4",fails to inhibit complex formation from introduced antigenic peptide
same,Appearance of MHC-I molecules on the cell surface,RMA cells; FIG. 7,specifically blocks the movement of functional MHC-I complexes to the cell surface; also recorded: blocks the appearance of MHC-I molecules on the cell surface
same,Level of the individual class I subunits,RMA cells; control experiments,does not affect the level of the individual subunits
same,Antigen presentation from ovalbumin in intact cells,[1],can enter into living cells and inhibit antigen processing; also recorded: inhibits presentation of antigen from ovalbumin
same,MHC-I presentation of ovalbumin peptide,"[2]; APCs electroporated with ovalbumin peptide, FIG. 5 right panel",fails to block the presentation of the specific peptide; also recorded: does not inhibit the presentation of electroporated peptide
same,MHC-I presentation of ovalbumin,"[2]; APCs electroporated with ovalbumin, FIG. 5 left panel",inhibits the presentation of ovalbumin with class I MHC molecules; also recorded: inhibits presentation of antigen from ovalbumin
same,Ki,26S proteasome,2900 nM
same,Protein degradation induced by denervation in incubated rat soleus muscle,rat soleus muscle,inhibits the accelerated proteolysis in muscle; also recorded: inhibition of protein degradation
same,Presentation of antigen from ovalbumin in human cells,human cell line RAJI-K^b,prevents antigen presentation in human cells; also recorded: inhibits presentation of antigen from ovalbumin in human cells
